Test results as given in ChEMBL document CHEMBL1201862, “PubChem BioAssay data set” (2004).
Values belong to the compound of their own block, whether it stands above or below them. Active and inactive are the calls of the source.

What was measured:
Mucolipin-3 = target: T1, Mucolipin-3 (Homo sapiens, UniProt Q8TDD5); assay: Fluorescence counterscreen assay for […] agonists: dose response cell-based high-throughput screening assay to identify agonists of the transient receptor potential channel ML3 (TRPML3). [Related pubchem assays: 1424, 1448 ]; format: functional
T1 sequence (Q8TDD5 whole entry): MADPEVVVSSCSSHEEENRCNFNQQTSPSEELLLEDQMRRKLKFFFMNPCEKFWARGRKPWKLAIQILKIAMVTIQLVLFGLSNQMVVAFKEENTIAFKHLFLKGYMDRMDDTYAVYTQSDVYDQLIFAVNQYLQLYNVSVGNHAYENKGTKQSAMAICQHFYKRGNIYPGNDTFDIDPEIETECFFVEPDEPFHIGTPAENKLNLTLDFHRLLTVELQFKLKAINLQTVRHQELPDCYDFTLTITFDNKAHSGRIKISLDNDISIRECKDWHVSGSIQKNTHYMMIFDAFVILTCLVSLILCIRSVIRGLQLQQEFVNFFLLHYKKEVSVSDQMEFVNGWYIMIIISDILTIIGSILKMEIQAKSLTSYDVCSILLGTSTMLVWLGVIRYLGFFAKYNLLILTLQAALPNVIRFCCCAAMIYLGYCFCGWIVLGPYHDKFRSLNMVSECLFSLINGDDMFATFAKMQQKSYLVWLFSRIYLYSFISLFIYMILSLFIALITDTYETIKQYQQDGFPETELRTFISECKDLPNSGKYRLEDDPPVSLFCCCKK

Ion channel NompC = Ion channel NompC (Danio rerio, UniProt Q7T1G6); assay: Dose response cell-based high-throughput screening assay for agonists of the transient receptor potential channel N1 (TRPN1). [Related pubchem assays (depositor defined):AID1424, AID1448]; format: functional
Sequence of Ion channel NompC (Q7T1G6 whole entry): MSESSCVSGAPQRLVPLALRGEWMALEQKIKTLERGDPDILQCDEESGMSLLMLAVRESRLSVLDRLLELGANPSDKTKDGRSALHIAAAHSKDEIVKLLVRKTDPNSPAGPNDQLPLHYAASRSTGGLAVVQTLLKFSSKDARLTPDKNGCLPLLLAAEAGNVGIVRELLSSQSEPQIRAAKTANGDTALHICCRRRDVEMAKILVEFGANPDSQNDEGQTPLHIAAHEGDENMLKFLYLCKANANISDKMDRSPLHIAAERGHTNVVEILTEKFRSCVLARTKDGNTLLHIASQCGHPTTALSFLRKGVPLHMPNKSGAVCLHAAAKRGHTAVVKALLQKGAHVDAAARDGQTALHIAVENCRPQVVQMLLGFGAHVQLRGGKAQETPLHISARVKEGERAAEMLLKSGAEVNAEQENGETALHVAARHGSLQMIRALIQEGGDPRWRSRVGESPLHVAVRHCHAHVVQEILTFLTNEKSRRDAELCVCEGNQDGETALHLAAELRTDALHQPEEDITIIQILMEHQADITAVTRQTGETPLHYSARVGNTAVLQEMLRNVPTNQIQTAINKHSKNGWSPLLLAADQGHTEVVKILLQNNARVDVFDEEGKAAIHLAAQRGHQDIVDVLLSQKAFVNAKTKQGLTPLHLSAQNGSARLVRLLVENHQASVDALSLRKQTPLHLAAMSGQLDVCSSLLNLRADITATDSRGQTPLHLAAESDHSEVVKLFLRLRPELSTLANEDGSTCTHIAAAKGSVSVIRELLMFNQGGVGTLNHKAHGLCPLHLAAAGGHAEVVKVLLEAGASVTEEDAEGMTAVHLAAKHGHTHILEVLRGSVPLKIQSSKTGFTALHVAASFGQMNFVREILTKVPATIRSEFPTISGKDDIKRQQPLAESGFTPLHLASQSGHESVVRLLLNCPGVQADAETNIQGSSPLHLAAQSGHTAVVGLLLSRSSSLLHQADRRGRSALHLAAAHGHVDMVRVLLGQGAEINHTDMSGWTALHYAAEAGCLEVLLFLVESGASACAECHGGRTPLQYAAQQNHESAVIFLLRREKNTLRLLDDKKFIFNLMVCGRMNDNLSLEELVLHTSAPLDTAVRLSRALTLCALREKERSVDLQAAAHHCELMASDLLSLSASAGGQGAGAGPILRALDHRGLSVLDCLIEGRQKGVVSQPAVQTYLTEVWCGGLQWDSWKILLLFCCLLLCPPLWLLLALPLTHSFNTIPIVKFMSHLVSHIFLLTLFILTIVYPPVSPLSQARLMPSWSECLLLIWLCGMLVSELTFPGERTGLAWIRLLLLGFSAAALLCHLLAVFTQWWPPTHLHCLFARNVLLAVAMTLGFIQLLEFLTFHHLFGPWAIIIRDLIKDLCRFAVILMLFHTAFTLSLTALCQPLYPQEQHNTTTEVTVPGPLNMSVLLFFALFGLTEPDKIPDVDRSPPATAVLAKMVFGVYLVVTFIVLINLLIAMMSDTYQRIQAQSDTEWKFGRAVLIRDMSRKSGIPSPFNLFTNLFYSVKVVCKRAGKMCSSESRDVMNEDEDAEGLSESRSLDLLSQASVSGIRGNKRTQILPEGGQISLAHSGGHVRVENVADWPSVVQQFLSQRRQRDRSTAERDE

[1] = target: T2, Corticotropin-releasing factor receptor 2/Corticotropin-releasing factor-binding protein (Homo sapiens, UniProt P24387+Q13324); assay: activators of CRF receptor 2 with binding protein – uHTS hits, confirmation (AID 602473); format: functional; conditions: read-out: EC50_Mean
T2 sequence (Q13324 whole entry): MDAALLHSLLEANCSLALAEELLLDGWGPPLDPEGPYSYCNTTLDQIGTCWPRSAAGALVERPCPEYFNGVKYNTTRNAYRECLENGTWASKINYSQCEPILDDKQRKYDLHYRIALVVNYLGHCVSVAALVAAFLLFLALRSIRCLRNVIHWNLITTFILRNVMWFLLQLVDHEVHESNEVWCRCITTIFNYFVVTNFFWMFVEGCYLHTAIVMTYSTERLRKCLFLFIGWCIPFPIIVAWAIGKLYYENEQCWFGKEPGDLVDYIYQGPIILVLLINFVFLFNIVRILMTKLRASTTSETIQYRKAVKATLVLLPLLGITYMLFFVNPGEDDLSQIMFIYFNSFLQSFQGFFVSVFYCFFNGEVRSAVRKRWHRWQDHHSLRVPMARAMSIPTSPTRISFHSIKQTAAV
T2 sequence (P24387 whole entry): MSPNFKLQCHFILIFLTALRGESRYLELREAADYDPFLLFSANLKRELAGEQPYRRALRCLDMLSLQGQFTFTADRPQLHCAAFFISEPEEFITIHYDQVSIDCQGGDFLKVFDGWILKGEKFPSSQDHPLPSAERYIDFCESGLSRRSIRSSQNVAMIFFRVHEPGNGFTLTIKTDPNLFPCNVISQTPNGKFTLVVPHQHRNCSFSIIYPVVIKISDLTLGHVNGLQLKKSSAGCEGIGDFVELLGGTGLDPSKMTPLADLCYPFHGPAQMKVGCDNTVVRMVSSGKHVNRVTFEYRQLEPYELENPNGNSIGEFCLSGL

[2] = target: DNA dC->dU-editing enzyme APOBEC-3G (Homo sapiens, UniProt Q9HC16); format: functional;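 note: Dose-response counterscreen measuring inhibition of APOBEC3G DNA deaminase activity, run while confirming APOBEC3A inhibitors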
Sequence of DNA dC->dU-editing enzyme APOBEC-3G (Q9HC16 whole entry): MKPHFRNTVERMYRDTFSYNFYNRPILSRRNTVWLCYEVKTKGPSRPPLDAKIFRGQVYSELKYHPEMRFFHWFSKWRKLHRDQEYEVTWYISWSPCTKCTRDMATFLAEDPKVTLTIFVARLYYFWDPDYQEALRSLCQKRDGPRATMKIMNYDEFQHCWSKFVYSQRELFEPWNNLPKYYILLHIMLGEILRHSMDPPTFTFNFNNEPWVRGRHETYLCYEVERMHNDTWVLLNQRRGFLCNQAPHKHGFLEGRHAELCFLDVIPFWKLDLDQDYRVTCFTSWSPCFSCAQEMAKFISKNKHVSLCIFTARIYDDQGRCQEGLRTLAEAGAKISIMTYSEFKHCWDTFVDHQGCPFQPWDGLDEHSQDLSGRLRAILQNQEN

[3] = target: DNA dC->dU-editing enzyme APOBEC-3A (Homo sapiens, UniProt P31941); assay: Dose Response confirmation of small molecule APOBEC3A DNA Deaminase Inhibitors via a fluorescence-based single-stranded DNA deaminase assay. [Related pubchem assays (depositor defined):AID493011, AID493024]; format: functional
Sequence of DNA dC->dU-editing enzyme APOBEC-3A (P31941 whole entry): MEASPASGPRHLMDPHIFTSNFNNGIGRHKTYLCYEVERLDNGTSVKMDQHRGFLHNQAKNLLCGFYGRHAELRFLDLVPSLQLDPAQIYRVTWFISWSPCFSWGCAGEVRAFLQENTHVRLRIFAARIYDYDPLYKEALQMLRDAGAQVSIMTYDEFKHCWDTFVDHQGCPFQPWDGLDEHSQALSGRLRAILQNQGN

[4] = viability of PTEN-deleted HCT116 cells – cell-based, HCT116 PTEN knockout, dose response (AID 1047); format: functional;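 note: HCT116 colon tumor cells with PTEN knocked out; cells exposed to compound for 60 hours before readout; potency for loss of cell viability measured by luminescence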
[5] = viability of HCT116 lacking mutant beta-catenin – cell-based, human colon tumor, dose response (AID 1045); format: functional;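 note: HCT116 colon tumor cells with beta catenin knocked out; cells exposed to compound for 60 hours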
[6] = target: Alkaline phosphatase, placental type (Homo sapiens, UniProt P05187); assay: human placental alkaline phosphatase inhibition – biochemical, luminescence, confirmation (AID 1512); format: functional
Sequence of Alkaline phosphatase, placental type (P05187 whole entry): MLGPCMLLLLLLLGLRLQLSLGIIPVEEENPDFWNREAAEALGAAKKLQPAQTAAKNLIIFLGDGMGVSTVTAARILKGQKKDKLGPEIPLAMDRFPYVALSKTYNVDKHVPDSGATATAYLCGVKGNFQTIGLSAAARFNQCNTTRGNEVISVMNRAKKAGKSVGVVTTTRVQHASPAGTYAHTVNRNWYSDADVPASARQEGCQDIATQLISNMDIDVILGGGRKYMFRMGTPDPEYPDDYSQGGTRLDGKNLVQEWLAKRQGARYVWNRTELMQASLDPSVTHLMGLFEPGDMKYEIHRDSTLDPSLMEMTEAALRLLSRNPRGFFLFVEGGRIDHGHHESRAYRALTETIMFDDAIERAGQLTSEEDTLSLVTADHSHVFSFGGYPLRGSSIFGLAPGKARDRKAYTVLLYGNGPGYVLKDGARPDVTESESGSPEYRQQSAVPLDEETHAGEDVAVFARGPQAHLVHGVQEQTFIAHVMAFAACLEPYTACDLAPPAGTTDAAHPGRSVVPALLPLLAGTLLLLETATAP

[7] = target: T3, Alkaline phosphatase, tissue-nonspecific isozyme (Homo sapiens, UniProt P05186); assay: potency against alkaline phosphatase TNAP – biochemical, luminescent, dose response, SAR follow-up (AID 1056)
T3 sequence (P05186 whole entry): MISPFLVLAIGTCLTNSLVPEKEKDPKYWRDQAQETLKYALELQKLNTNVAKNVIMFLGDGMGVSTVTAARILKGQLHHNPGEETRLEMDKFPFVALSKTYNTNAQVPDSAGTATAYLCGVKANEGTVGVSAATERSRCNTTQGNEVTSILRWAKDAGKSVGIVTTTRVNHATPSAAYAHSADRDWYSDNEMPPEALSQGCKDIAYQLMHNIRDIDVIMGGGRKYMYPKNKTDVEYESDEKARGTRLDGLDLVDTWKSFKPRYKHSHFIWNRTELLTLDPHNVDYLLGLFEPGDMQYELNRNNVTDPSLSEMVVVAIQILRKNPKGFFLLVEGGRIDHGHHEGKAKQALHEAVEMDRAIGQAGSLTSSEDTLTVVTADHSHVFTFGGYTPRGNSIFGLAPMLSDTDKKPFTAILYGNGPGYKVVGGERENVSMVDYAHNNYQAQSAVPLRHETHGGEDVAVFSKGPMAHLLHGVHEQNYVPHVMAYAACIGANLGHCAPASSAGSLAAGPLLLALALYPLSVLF

Leucine aminopeptidase = target: T4, Leucine aminopeptidase (Plasmodium falciparum 3D7, UniProt Q8IL11); assay: P. falciparum M17LAP inhibitors, primary screen, biochemical, fluorogenic H-Leu-NHMec substrate, 1536-well (AID 1619); format: functional
T4 sequence (Q8IL11 whole entry): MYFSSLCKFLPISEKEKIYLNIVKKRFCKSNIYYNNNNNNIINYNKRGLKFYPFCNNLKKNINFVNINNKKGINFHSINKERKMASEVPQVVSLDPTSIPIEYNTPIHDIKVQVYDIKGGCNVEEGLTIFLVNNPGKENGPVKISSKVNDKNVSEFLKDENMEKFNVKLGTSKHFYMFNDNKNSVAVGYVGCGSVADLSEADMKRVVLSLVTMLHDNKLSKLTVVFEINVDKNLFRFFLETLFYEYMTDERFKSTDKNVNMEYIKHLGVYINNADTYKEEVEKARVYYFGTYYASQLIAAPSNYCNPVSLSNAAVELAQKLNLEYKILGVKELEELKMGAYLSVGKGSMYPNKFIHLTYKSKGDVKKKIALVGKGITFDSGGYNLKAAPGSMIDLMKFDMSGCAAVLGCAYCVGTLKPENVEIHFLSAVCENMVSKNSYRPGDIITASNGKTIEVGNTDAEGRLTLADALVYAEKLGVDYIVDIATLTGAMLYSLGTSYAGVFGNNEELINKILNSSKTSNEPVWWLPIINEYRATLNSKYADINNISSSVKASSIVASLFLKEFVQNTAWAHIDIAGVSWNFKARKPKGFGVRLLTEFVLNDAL

Large T antigen = Large T antigen (Simian virus 40, UniProt P03070); format: functional, Betapolyomavirus macacae;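 note: Confirmatory-stage PubChem screen for compounds that inhibit SV40 T antigen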
Cytochrome P450 2C19 = Cytochrome P450 2C19 (Homo sapiens, UniProt P33261); assay: Cytochrome panel assay with activity outcomes. Panel member name: p450-cyp2c19 Compounds with AC50 equal or less than 10 uM are considered active; format: functional; conditions: read-out: AC50
Sequence of Cytochrome P450 2C19 (P33261 whole entry): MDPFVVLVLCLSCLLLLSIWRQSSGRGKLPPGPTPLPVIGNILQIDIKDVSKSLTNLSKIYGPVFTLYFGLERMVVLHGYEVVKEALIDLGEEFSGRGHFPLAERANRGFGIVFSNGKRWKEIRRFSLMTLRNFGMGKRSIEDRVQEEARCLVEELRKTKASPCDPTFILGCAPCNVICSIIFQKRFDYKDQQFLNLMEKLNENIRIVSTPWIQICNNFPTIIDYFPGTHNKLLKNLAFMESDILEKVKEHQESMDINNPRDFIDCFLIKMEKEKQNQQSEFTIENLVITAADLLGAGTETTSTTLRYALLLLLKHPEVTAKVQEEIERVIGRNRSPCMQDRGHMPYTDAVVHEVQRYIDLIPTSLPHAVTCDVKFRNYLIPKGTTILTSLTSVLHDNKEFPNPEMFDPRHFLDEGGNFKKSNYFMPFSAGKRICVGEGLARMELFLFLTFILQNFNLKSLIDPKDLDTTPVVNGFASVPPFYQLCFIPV

HEK293 [8] = assay: cells; format: functional, cell-based; conditions: Homo sapiens
HEK293 [9] = assay: inhibition of NOD1-driven NF-kB reporter – cell-based, luminescence, uHTS, primary screen (AID 1578); format: functional; conditions: Homo sapiens
[10] = loss of viability in HepG2 cells – cell-based, CellTiter-Glo, cherry-picked, cytotoxicity control for Shn3 inhibitor project, dose response (AID 624134); format: functional
[11] = reduction of Shn3 3'UTR-driven luciferase in osteoblasts – cell-based, Clone20 osteoblasts, firefly luciferase, cherry-picked, dose response (AID 624132); format: functional;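 note: firefly luciferase luminescence from reporter carrying the Shn3 3'UTR in osteoblasts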
HEK293 [12] = assay: NOD2 signaling inhibitors in MDP-stimulated cells, cell-based, uHTS, luminescence (AID 2001); format: functional; conditions: Homo sapiens
[13] = target: Nucleotide-binding oligomerization domain-containing protein 2 (Homo sapiens, UniProt Q9HC29); assay: inhibition of NOD2-driven NF-kB reporter – cell-based, luminescence, uHTS, HEK293 (AID 1566); format: functional
Sequence of Nucleotide-binding oligomerization domain-containing protein 2 (Q9HC29 whole entry, the tested form may be a part): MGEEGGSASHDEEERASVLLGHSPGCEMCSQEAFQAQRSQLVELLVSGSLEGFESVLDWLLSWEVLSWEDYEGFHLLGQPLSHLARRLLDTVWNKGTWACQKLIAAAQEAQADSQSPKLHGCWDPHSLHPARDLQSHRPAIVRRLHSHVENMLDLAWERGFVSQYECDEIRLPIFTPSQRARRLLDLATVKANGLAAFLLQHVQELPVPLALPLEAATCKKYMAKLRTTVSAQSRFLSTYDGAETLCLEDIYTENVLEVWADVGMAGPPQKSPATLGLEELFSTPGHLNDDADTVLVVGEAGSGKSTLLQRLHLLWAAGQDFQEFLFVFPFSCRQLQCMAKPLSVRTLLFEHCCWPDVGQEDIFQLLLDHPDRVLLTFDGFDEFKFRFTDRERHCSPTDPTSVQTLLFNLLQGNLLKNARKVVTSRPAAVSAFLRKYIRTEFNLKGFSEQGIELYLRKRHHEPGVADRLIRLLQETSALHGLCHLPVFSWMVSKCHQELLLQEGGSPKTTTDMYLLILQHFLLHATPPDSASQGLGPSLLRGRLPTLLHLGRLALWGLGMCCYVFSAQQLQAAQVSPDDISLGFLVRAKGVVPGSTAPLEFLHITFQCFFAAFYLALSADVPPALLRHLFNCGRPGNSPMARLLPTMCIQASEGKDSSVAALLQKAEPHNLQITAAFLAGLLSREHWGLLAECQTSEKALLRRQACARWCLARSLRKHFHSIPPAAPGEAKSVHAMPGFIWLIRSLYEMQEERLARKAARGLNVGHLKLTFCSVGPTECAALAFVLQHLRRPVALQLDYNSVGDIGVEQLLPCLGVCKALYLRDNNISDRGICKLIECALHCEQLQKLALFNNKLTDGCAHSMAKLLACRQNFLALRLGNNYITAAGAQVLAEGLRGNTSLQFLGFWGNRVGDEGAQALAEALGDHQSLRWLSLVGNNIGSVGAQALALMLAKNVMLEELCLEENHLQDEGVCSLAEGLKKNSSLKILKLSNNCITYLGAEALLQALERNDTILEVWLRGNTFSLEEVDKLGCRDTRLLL

Tumor necrosis factor = Tumor necrosis factor (Homo sapiens, UniProt P01375); assay: analog potency on TNFa NF-kB signaling – cell-based, revised, SAR follow-up (AID 2337); format: functional
Sequence of Tumor necrosis factor (P01375 whole entry): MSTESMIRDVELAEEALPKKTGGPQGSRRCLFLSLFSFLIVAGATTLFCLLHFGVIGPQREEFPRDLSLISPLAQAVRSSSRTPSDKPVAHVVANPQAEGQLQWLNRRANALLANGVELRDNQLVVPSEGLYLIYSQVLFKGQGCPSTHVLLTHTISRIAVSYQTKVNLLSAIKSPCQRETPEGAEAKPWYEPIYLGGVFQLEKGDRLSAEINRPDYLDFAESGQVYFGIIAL

HEK293 [14] = assay: cells; format: functional, cell-based; conditions: Homo sapiens; remark: listed apart in the source
HEK293 [15] = assay: cells; conditions: Homo sapiens
HEK293 [16] = assay: cells; format: functional, cell-based; conditions: Homo sapiens; remark: listed apart in the source
[17] = target: T5, Nucleotide-binding oligomerization domain-containing protein 1 (Homo sapiens, UniProt Q9Y239); assay: blockers of NOD1 pathway activity – revised, SAR follow-up (AID 2333); format: functional
T5 sequence (Q9Y239 whole entry): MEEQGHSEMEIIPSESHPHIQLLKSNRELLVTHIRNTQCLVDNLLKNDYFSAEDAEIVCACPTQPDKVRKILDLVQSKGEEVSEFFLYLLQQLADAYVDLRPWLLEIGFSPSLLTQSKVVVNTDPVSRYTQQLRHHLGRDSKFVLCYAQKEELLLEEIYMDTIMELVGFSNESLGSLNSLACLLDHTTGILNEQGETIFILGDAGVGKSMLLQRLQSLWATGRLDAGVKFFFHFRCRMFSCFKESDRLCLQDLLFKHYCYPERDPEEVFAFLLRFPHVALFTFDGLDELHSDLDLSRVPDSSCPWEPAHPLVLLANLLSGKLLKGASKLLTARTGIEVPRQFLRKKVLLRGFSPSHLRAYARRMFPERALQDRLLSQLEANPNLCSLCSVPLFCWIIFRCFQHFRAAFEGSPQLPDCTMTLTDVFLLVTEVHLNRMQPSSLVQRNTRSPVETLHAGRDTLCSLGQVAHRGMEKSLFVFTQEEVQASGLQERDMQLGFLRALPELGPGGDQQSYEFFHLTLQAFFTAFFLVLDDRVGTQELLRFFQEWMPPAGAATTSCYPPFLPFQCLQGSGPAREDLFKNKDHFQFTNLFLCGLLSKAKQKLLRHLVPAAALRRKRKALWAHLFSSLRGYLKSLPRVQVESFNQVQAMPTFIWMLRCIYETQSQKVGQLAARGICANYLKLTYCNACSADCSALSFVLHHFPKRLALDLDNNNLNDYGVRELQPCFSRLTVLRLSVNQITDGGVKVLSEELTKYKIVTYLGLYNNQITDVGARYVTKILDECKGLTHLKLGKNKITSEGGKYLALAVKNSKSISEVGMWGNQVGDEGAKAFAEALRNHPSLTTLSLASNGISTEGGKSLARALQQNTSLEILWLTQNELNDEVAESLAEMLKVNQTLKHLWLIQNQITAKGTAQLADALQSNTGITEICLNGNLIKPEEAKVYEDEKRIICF

[18] = non-specific 3'UTR reporter inhibition in Clone20-Shn3RL – cell-based, Renilla luciferase, cherry-picked, counter-screen for Shn3 inhibitor project, dose response (AID 624133); format: functional

SMILES: COc1ccccc1N(CC(=O)Nc1ccc2c(c1)OCO2)S(=O)(=O)c1ccccc1
IC50 [2]: 1.81 µM (active)
IC50 [3]: 2.01 µM (active)

SMILES: O=C(Nc1ccccc1)Nc1ccc(F)c([N+](=O)[O-])c1
EC50 (Mucolipin-3): > 29.9 µM (not active)
EC50 (Ion channel NompC): > 29.9 µM (inactive)
EC50 [4]: 15.2 µM (active)
EC50 [5]: 18.1 µM (active)

SMILES: Cc1ccc(C)c(NC(=O)c2nc[nH]n2)c1
IC50 [2]: 14.1 µM (active)
AC50 (Cytochrome P450 2C19): 39.8 µM (inconclusive)
IC50 [3]: 11.6 µM (active)

SMILES: O=C(c1ccc(S(=O)(=O)c2ccccc2Cl)c([N+](=O)[O-])c1)N1CCN(Cc2ccccc2)CC1
IC50 (HEK293 [8]): 17.6 µM (active)
EC50 (HEK293 [9]): 12.9 µM (active)
AC50 [10]: 50 µM (active)
AC50 [11]: 5.77 µM (active)
IC50 (HEK293 [12]): 5.54 µM (active)
EC50 [13]: 11.8 µM (active)
IC50 (Tumor necrosis factor): 6.58 µM (active)
IC50 (HEK293 [14]): > 20 µM (inactive)
IC50 (HEK293 [15]): 15.3 µM (active)
IC50 (HEK293 [16]): 4.59 µM (active)
IC50 [17]: 3.65 µM (active)
AC50 [18]: 3.48 µM (active)

More lines, now with the values ahead:

EC50 (Mucolipin-3): 2.76 µM (active)
EC50 (Ion channel NompC): 1.47 µM (active)
EC50 [1]: 3.53 µM (active)
SMILES: NC(S)=NNC(=O)C12CC3CC(CC(C3)C1)C2

IC50 [6]: 74.4 µM (active)
IC50 [7]: 78 µM (active)
SMILES: CCCCN1C(=O)/C(=N\Nc2ccccc2C)c2ccccc21

IC50 [6]: 11.8 µM (active)
IC50 (Leucine aminopeptidase): 17.9 µM (active)
IC50 (Large T antigen): 10.4 µM (active)
IC50 [7]: > 100 µM (inactive)
SMILES: CCn1c(SCC(=O)c2ccc(O)c(O)c2)nnc1-c1ccc(C)cc1

IC50 [2]: 48.3 µM (active)
IC50 [3]: 20.2 µM (active)
SMILES: COc1ccc(Br)cc1CN(C)C(=O)C1=CC=CN2CCS(=O)(=O)N=C12
